Experimental data published in patent US7737155B2, “Nitrogen-containing heterocyclic compounds and methods of use thereof” (Schering Corporation, priority 2005, dated 2010).

Target: recombinant human nicotinic acid receptor (NAR) (Homo sapiens, UniProt Q8TDS4)
Experiment: Nicotinic Acid Receptor Assay: inhibition of forskolin-stimulated cAMP accumulation in CHO cells (MesoScale Discovery cAMP kit)
Assay type: cell-based
Settings: CHO cells expressing recombinant human NAR; forskolin-stimulated cAMP; read-out: NA EC50 camp
Protocol: The nicotinic acid receptor agonist activity of the inventive compounds was determined by following the inhibition of forskolin-stimulated cAMP accumulation in cells using the MesoScale Discovery cAMP detection kit following the manufacture's protocol. Briefly, Chinese Hamster Ovary (CHO) cells expressing recombinant human nicotinic acid receptor (NAR) were harvested enzymatically, washed 1× in phosphate buffered saline (PBS) and resuspended in PBS containing 0.5 mM IBMX at 3×10^6 cells/mL. Ten μL of cell suspension was added to each well of a 384-well plate which contained 10 μL of test compounds. Test compounds were diluted with PBS containing 6 μM of forskolin. Plates were incubated for 30 minutes at room temperature after the addition of cells. Lysis buffer containing cAMP-Tag was added to each well (10 μL/well) as per the manufacturer's protocol. Plates were then incubated from 45 minutes to overnight. Prior to reading, 10 μL of read buffer was added to each well, and the plate was read in a Sector 6000 plate imager. The signal was converted to cAMP concentration using a standard curve run on each plate.

recombinant human nicotinic acid receptor (NAR), sequence (Q8TDS4 whole entry): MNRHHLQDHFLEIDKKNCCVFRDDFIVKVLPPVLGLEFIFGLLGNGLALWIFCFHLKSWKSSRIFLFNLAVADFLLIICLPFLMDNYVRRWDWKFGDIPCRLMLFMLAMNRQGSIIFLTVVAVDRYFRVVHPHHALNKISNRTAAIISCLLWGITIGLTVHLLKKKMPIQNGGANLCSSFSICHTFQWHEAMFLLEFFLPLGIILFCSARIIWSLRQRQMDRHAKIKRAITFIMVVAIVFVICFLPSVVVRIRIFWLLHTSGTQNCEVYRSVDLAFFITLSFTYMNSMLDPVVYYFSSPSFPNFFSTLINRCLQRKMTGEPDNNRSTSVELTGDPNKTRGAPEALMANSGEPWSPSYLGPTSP

| SMILES | EC50 |
| --- | --- |
| CCc1cc(=O)oc2nc(OCc3c(-c4c(Cl)cccc4Cl)noc3C)[nH]c(=O)c12 [Compound 647] | 100 to 1000 nM |
| CCc1noc(C)c1COc1nc2oc(=O)cc(CC)c2c(=O)[nH]1 [Compound 666] | 0.001 to 100 nM |
| CCc1cc(=O)oc2nc(OC[C@@H](OC)c3ccccc3)[nH]c(=O)c12 [Compound 618] | 100 to 1000 nM |
| CCc1cc(=O)oc2nc(OCCc3cccc4ccccc34)[nH]c(=O)c12 [Compound 537] | > 1000 nM |
| CCOC(=O)COc1nc2oc(=O)cc(CC)c2c(=O)[nH]1 [Compound 519] | > 1000 nM |
| CCc1cc(=O)oc2nc(OCCS(=O)(=O)c3ccc(Cl)cc3)[nH]c(=O)c12 [Compound 591] | 0.001 to 100 nM |
| CCc1cc(=O)oc2nc(OCc3ccc(Cl)cc3OC)[nH]c(=O)c12 [Compound 515] | 100 to 1000 nM |
| CCc1cc(=O)oc2nc(OCc3cccc(-c4cccnc4)c3)[nH]c(=O)c12 [Compound 563] | 100 to 1000 nM |
| CCc1cc(=O)oc2nc(OCC#CC(O)CC)[nH]c(=O)c12 (stereo not drawn) [Compound 671] | 0.001 to 100 nM |
| CCc1cc(=O)oc2nc(OCc3ccccc3-c3ccc(F)cc3)[nH]c(=O)c12 [Compound 510] | > 1000 nM |
| CCc1cc(=O)oc2nc(OCc3cccc(OC)n3)[nH]c(=O)c12 [Compound 544] | 100 to 1000 nM |
| CCc1cc(=O)oc2nc(OCc3cc(Cl)ccc3OC)[nH]c(=O)c12 [Compound 507] | 0.001 to 100 nM |
| CCc1cc(=O)oc2nc(OCc3c(-c4ccccc4)noc3C)[nH]c(=O)c12 [Compound 526] | 100 to 1000 nM |
| CCCCCc1cc(=O)oc2nc(ONC(=O)OCC)[nH]c(=O)c12 [Compound 695] | 0.001 to 100 nM |
| CCc1cc(=O)oc2nc(OCc3ccccc3-c3ccc(F)c(C#N)c3)[nH]c(=O)c12 [Compound 584] | 100 to 1000 nM |
| CCCCc1c(-c2ccc(F)cc2)c(=O)oc2[nH]c(=O)[nH]c(=O)c12 [Compound 706] | > 1000 nM |
| CCc1cc(=O)oc2nc(OCC#CCOC)[nH]c(=O)c12 [Compound 636] | 100 to 1000 nM |
| CCc1cc(=O)oc2nc(OCc3cc(-c4ccccc4)oc3C)[nH]c(=O)c12 [Compound 542] | > 1000 nM |
| CCc1cc(=O)oc2nc(OCCSc3ccccn3)[nH]c(=O)c12 [Compound 655] | 100 to 1000 nM |
| O=c1cc(CCCc2cccs2)c2c(=O)[nH]c(=O)n(CC3CC3)c2o1 [Compound 255] | > 1000 nM |
| CCc1cc(=O)oc2nc(OCc3ccccc3-c3cccc(C(=O)N(C)C)c3)[nH]c(=O)c12 [Compound 552] | 100 to 1000 nM |
| CCc1cc(=O)oc2nc(OCC#CC(C)O)[nH]c(=O)c12 (stereo not drawn) [Compound 644] | 0.001 to 100 nM |
| CCc1cc(=O)oc2nc(OCC#CCN(C)C)[nH]c(=O)c12 [Compound 641] | 0.001 to 100 nM |
| CCc1cc(=O)oc2nc(OCc3cc(C)cc(C)c3)[nH]c(=O)c12 [Compound 505] | 100 to 1000 nM |
| CCc1cc(=O)oc2nc(OCc3ccccc3-c3cccc(C(=O)NC4CC4)c3)[nH]c(=O)c12 [Compound 553] | > 1000 nM |
| CCc1cc(=O)oc2nc(OCc3cc(C)ccc3C)[nH]c(=O)c12 [Compound 539] | 100 to 1000 nM |
| CCc1cc(=O)oc2nc(OCc3ocnc3C)[nH]c(=O)c12 [Compound 513] | 100 to 1000 nM |
| CCc1cc(=O)oc2nc(OCc3nccc4ccccc34)[nH]c(=O)c12 [Compound 528] | 100 to 1000 nM |
| CCc1cc(=O)oc2nc(OCCS(C)(=O)=O)[nH]c(=O)c12 [Compound 588] | > 1000 nM |
| CCc1cc(=O)oc2nc(OCCN3CCOC3=O)[nH]c(=O)c12 [Compound 620] | > 1000 nM |

Further lines, results first:

| EC50 | SMILES |
| --- | --- |
| > 1000 nM | O=c1[nH]c(=O)c2c(CCCOC3CCCCC3)cc(=O)oc2[nH]1 [Compound 287] |
| > 1000 nM | O=C(OCc1ccccc1)N1CCC(Cc2cc(=O)oc3[nH]c(=O)[nH]c(=O)c23)C1 (stereo not drawn) [Compound 233] |
| 100 to 1000 nM | O=c1[nH]c(=O)c2c(CC3CCCC(C(F)(F)F)C3)cc(=O)oc2[nH]1 (stereo not drawn) [Compound 213] |
| 0.001 to 100 nM | O=c1[nH]c(=O)c2c(CCCC3CCCC3)cc(=O)oc2[nH]1 [Compound 297] |
| > 1000 nM | CC(C)(C#N)CCCc1cc(=O)oc2[nH]c(=O)[nH]c(=O)c12 [Compound 288] |
| 100 to 1000 nM | CCc1noc(C)c1COc1nc2oc(=O)cc(CCC3CCCC3)c2c(=O)[nH]1 [Compound 689] |
| > 1000 nM | O=c1[nH]c(=O)c2c(CCC34CC5CC(CC(C5)C3)C4)cc(=O)oc2[nH]1 [Compound 215] |
| > 1000 nM | CC(Cc1cc(=O)oc2[nH]c(=O)[nH]c(=O)c12)CC(C)(C)C (stereo not drawn) [Compound 248] |
| > 1000 nM | N#Cc1ccc(-c2c(CCC3CCC3)c3c(=O)[nH]c(=O)[nH]c3oc2=O)cc1 [Compound 702] |
| 100 to 1000 nM | Cn1c(=O)[nH]c(=O)c2c(CCC3CC3)cc(=O)oc21 [Compound 275] |
| 100 to 1000 nM | CCOC(=O)NOc1nc2oc(=O)cc(CCC3CCCC3)c2c(=O)[nH]1 [Compound 693] |
| > 1000 nM | CC(=O)NCCCc1cc(=O)oc2[nH]c(=O)[nH]c(=O)c12 [Compound 237] |
| 100 to 1000 nM | N#CC1(CCCc2cc(=O)oc3[nH]c(=O)[nH]c(=O)c23)CC1 [Compound 294] |
| 0.001 to 100 nM | C#CCCCCc1cc(=O)oc2[nH]c(=O)[nH]c(=O)c12 [Compound 226] |
| > 1000 nM | O=c1[nH]c(=O)c2c(CC3C[C@@H]4CC[C@H]3C4)cc(=O)oc2[nH]1 (stereo partly drawn) [Compound 201] |
| > 1000 nM | COc1ccc(-c2ccc(Cc3cc(=O)oc4[nH]c(=O)[nH]c(=O)c34)cc2)cc1 [Compound 207] |
| 0.001 to 100 nM | O=c1[nH]c(=O)c2c(CC3CCC(F)(F)CC3)cc(=O)oc2[nH]1 [Compound 223] |
| 100 to 1000 nM | O=c1cc(CCCCC2CC2)c2c(=O)[nH]c(=O)n(C3CCC3)c2o1 [Compound 210] |

Same assay, conditions: NA EC50 camp (nM), CHO cells expressing recombinant human NAR; forskolin-stimulated cAMP

| SMILES | EC50 |
| --- | --- |
| C#CCOc1nc2oc(=O)cc(CC)c2c(=O)[nH]1 [Compound 555] | 100 to 1000 nM |
| CCc1cc(=O)oc2nc(OCc3ccc(-c4cncnc4)cc3F)[nH]c(=O)c12 [Compound 575] | 100 to 1000 nM |
| CCc1noc(CC)c1COc1nc2oc(=O)cc(CC)c2c(=O)[nH]1 [Compound 667] | 100 to 1000 nM |

Same assay, conditions: NA EC50 camp, inhibition of forskolin-stimulated cAMP accumulation, CHO cells expressing recombinant human NAR

| SMILES | EC50 |
| --- | --- |
| O=c1cc(CCCC2CC2)c2c(=O)[nH]c(C(F)F)nc2o1 [Compound 740] | 130 nM |

Same assay, conditions: inhibition of forskolin-stimulated cAMP accumulation, CHO cells expressing recombinant human NAR; read-out: NA EC50 camp

| SMILES | EC50 |
| --- | --- |
| CCCCc1cc(=O)oc2[nH]c(=O)n(OCc3ccccc3)c(=O)c12 [Compound 799] | > 10000 nM |
| CCCCCCc1cc(=O)oc2[nH]c(=O)nc(OCF)c12 [Compound 833] | 511 nM |
| CCC#CCOc1nc2oc(=O)cc(CCCC(C)C)c2c(=O)[nH]1 [Compound 715] | 671 nM |

Continued, values first:

| EC50 | SMILES |
| --- | --- |
| 6.3 nM | C#CCCCc1cc(=O)oc2[nH]c(=O)[nH]c(=O)c12 [Compound 128] |
| 88 nM | O=c1nc(OCF)c2c(CCCC3CC3)cc(=O)oc2[nH]1 [Compound 789] |
| 155 nM | O=c1[nH]c(=O)c2c(CC3CC3)cc(=O)oc2[nH]1 [Compound 117] |
| 56.7 nM | O=c1[nH]c(=O)c2c(CCCC3CCCC3)cc(=O)oc2[nH]1 [Compound 297] |
| 1540 nM | CCc1cc(=O)oc2[nH]c(=O)n(CCF)c(=O)c12 [Compound 819] |
| 57.3 nM | CC1CCC(Cc2cc(=O)oc3[nH]c(=O)[nH]c(=O)c23)CC1 (stereo not drawn) [Compound 127] |
| 12 nM | O=c1cc(CCCC2CC2)c2c(=O)n(CF)c(=O)[nH]c2o1 [Compound 802] |
| 94 nM | CCn1c(=O)[nH]c2oc(=O)cc(CCCC3CC3)c2c1=O [Compound 782] |
| 74.3 nM | O=c1[nH]c(=O)c2c(CC3CCCCC3)cc(=O)oc2[nH]1 [Compound 103] |
| 26.5 nM | O=c1[nH]c(=O)c2c(CC3CCC(F)(F)CC3)cc(=O)oc2[nH]1 [Compound 223] |
| 2330 nM | N#Cc1c(CCCC2CC2)c2c(=O)[nH]c(=O)[nH]c2oc1=O [Compound 759] |
